This note sets out measurements from patent US20120094939A1, “ANTI-VIRAL COMPOUNDS, COMPOSITIONS AND METHODS” (priority 2007, published 2012).

Series [1] concerns Huh7/Rep-Feo cells. Description: Primary HTS cell viability counter-screen (CellTiterGlo). In kind it is cell-based, human. The note with it: Table 2 antiviral hits of DOS set; approximately 10-50 μM, most at 33 μM; 48 hours. As to the method: (§1) Primary Screening-HTS. Information about the library of known bioactive compounds that was screened and the general automated HTS protocol is available at http://www.broad.harvard.edu/chembio/index.html (see FIG. 10 for list of primary HTS with known bioactives library). Based on the results of optimization experiments in the 384-well plate format, the general HTS protocol was adapted as follows. Unless otherwise indicated, cells were incubated at all times in a humidified environment with 5% CO2 at 37° C. The assay was initiated by plating 30 μL of medium containing 2000 cells/well into white 384-well opaque-bottom plates (Nunc, Rochester, N.Y.) using an automated plate filler (Bio-Tek uFiller; Winsooki, Vt.) and allowing the cells to adhere for 24 hours. One hundred nL of compound stock solutions in DMSO was transferred from stock plates into the 384-well assay plates using an automated pin-based compound transfer robot (CyBio CyBi-Well vario; Woburn, Mass.). The final compound concentration in each well was estimated to be approximately 10-50 μM, with most compounds at 33 μM. The wells contained 0.33% DMSO by volume. The cells were then incubated for another 48 hours. The luminescent signal from each plate was detected using an automated plate reader (Perkin-Elmer Envision 1; Wellesley, Mass.). This screen was performed in duplicate. For negative controls, entire DMSO-treated control plates were employed, in addition to DMSO-only control wells that were incorporated into each compound assay plate. The cells were assayed for luciferase activity using the Bright-Glo Luciferase assay system (Promega), following the manufacturer's instructions. As a counter-screen, cell viability was assessed using the CellTiterGlo Luminescent cell viability assay (Promega) following the manufacturer's instructions.
Computational Data Analysis-Primary Screening. For each replicate, a mock-treatment distribution based on the total population of mock (DMSO) controls in that replicate was built (FIG. 11). Each compound was independently assigned a sign (ie, “+” or “−”) Z-score. Z-scores are calculated by dividing each background-subtracted, compound-treated well by the global standard deviation. A global standard deviation of the background-subtracted, mock-treated wells is calculated over the entire experiment. This distribution was determined to be consistent with experimental noise observed under cell-based assay conditions. The resulting collection of continuousvalued Z-scores represents the primary data set to be used for further analysis. The composite Z-score was calculated as a vector projection of each Z-score in duplicate onto an imaginary line of perfect reproducibility. Reproducibility is the cosine of the angle between each Z-score and that imaginary line; it is dimensionless and ranges from −1 to +1. […] The primary data were analyzed using the commercial software packages Pipeline Pilot (SciTegic, San Diego, Calif.) and SpotFire (SpotFire, Inc., Somerville, Mass.). The means of the negative, DMSO-only controls were considered the zero point.
Primary Screening—HTS: Unless otherwise indicated, cells were incubated at all times in a humidified environment with 5% CO2 at 37° C. The assay was initiated by plating 30 μl of medium containing 2,000 cells/well into white 384-well opaque-bottom plates (Nunc; Rochester, N.Y.) using an automated plate filler (Bio-Tek μFiller; Winsooki, Vt.) and allowing the cells to adhere for 24 hours. 100 nl of compound stock solutions in DMSO were transferred from stock plates into the 384-well assay plates using an automated pin-based compound transfer robot (CyBio CyBi-Well vario; Woburn, Mass.). The final compound concentration in each well was estimated to be approximately 10-50 μM, with most compounds at 33 μM. The wells contained 0.33% DMSO by volume. The cells were then incubated for another 48 hours. […]
For orientation: A counterscreen serves to expose hits that act by an unwanted route or on another target.

Series [2] relates to Huh7/Rep-Feo HCV replicon (HCV RNA replication). In kind it is cell-based, Hepatitis C virus (strain HCV—N, genotype 1b).
From the text: Development of the Huh7/Rep-Feo replicon assay. […] This replicon was derived from a chimpanzee infectious clone (strain HCV—N, genotype 1b). In this replicon, the structural genes have been replaced by a reporter gene. The chimeric reporter gene Feo encodes the firefly luciferase protein fused in-frame with neomycin phosphotransferase. This Huh7/Rep-Feo cell supports high levels of autonomous HCV RNA replication because it was derived from the HCV—N strain, which carries an adaptive mutation in NSSA that confers highlevel replication in tissue culture. Furthermore, the level of luciferase correlates well with levels of HCV RNA production, so that luciferase can be used as a reliable surrogate marker for HCV replication. The use of luciferase as a reporter permits quantitative and highthroughput detection of HCV replication levels. The specific use of firefly luciferase makes this replicon especially well-suited for automation, because the luciferase reagent can be added directly to the cell culture system prior to signal detection without the need for cell lysis, washing, or aspiration.
HCV Replicon System-Primary Screening. […] Briefly, this replicon harbors a subgenomic HCV genotype 1b sequence, fused to firefly luciferase, stably replicating under neomycin selection. Cells were propagated in Dulbecco's Modified Eagle's medium (DMEM) containing 10% fetal bovine serum (FBS) supplemented with 1% penicillin-streptomycin, and 500 μg of Geneticin (Invitrogen Corp., Carlsbad, Calif.)/mL. Cells were cultured in a 37° C., 5% CO2-humidified incubator for all experiments. To decrease day-today variability in the assay, a large homogenous population of subconfluent cells was passaged so that a similar lot of cells could be used throughout the HTS assay.
as §1
Computational Data Analysis-Primary Screening. For each replicate, a mock-treatment distribution based on the total population of mock (DMSO) controls in that replicate was built (FIG. 11).

Setting [3] is: Table 2 antiviral hits of DOS set, approximately 10-50 μM, most at 33 μM, 48 hours.

Read-outs that look alike come from different tables or passages of the source.

Turning to `CC[C@@H](c1ccccc1)n1c(=O)n2n(c1=O)[C@H]1[C@H](O)[C@@H]3O[C@@H]3/C(=N\OC[C@@H](O)COCc3ccco3)[C@H]1CC2` [BUCMLD-XL-190], in series [1], the “C-CompZ, compositeZ score for cell viability assay” value (from here on “C-CompZ, compositeZ score”) was 0.4558. Also, the “R-CompZ, compositeZ score for reporter gene assay” value (from here on “R-CompZ, compositeZ score”) in series [2] (setting [3]) is recorded as −2.5928.

Take `O=c1n(-c2ccccc2)c(=O)n2n1CC[C@@H]1/C(=N/OC[C@@H](O)COCc3ccco3)[C@H]3O[C@H]3[C@@H](O)[C@@H]12` [BUCMLD-B10A8]: the “C-CompZ, compositeZ score” value in series [1] amounted to 1.1582. Besides, the “R-CompZ, compositeZ score” value in series [2] (setting [3]) is −3.7511.

For the molecule `O=C1C2C=C(I)C(CC2OCCCCCCO)[C@@]12CO2` (some centres unmarked) [SM_A5B2_2P142], the “C-CompZ, compositeZ score” value in series [1] turned out to be 0.5666. Moreover, the “R-CompZ, compositeZ score” value in series [2] (setting [3]) was −2.7176.

As to `C#CCCCO/N=C1/[C@H]2CCn3c(=O)n([C@@H](CC)c4ccccc4)c(=O)n3[C@H]2[C@H](O)[C@@H]2O[C@H]12` [BUCMLD-XL-189], the “C-CompZ, compositeZ score” value in series [1] was 0.2217. In series [2] (setting [3]), the “R-CompZ, compositeZ score” value is −3.4882.

As for `C#CCCCO/N=C1/[C@H]2CCn3c(=O)n(-c4ccccc4)c(=O)n3[C@H]2[C@H](O)[C@@H]2O[C@H]12` [BUCMLD-XL-184], the “C-CompZ, compositeZ score” value in series [1] is reported as −0.1464. Also, in series [2] (setting [3]), the “R-CompZ, compositeZ score” value was −3.0142.

Regarding `COc1ccc(O[C@H]2C=C[C@@H](c3ccccc3)O[C@@H]2CO/N=C(\C)CCN2CCc3nc(-c4ccccc4)c(-c4ccccc4)cc3C2)cc1` [BUCMLD-B13A1], in series [1], the “C-CompZ, compositeZ score” value was −0.2035. In addition, in series [2] (setting [3]), the “R-CompZ, compositeZ score” value is on record as −3.1824.

`O=C1C2C=C(Br)C(CC2c2ccccc2)[C@@]12CO2` (some centres unmarked) [SM_A1B5_2P24]: in series [1], the “C-CompZ, compositeZ score” value is on record as −0.856. In series [2] (setting [3]), the “R-CompZ, compositeZ score” value is reported as −3.38.

As for `COc1ccc(O[C@H]2C=C[C@@H](c3ccccc3)O[C@@H]2CO/N=C2/[C@H]3CCn4c(=O)n(-c5ccccc5)c(=O)n4[C@H]3[C@H](O)[C@@H]3O[C@H]23)cc1` [BUCMLD-B10A1], in series [1], the “C-CompZ, compositeZ score” value is −1.5319. Besides, the “R-CompZ, compositeZ score” value in series [2] (setting [3]) is −4.4774.

Consider `O=C1C2C=C(I)C(CC2c2ccccc2)[C@@]12CO2` (some centres unmarked) [SM_A5B5_2P118], for which the “C-CompZ, compositeZ score” value in series [1] was −0.4963. Besides, in series [2] (setting [3]), the “R-CompZ, compositeZ score” value is −3.6565.

For `C[C@@]12COC[C@]13C=C(Br)C(C2)[C@@]1(CO1)C3=O` [SM_A7C2_2P155], the “C-CompZ, compositeZ score” value in series [1] is on record as 0.6028. In addition, the “R-CompZ, compositeZ score” value in series [2] (setting [3]) is −2.6813.

Consider `C[C@@H](O/N=C1/[C@H]2CCn3c(=O)n(-c4ccccc4)c(=O)n3[C@H]2[C@H](O)[C@@H]2O[C@H]12)c1cn([C@H](CO)Cc2ccccc2)nn1` [BUCMLD-B10A14], for which the “C-CompZ, compositeZ score” value in series [1] is given as 1.128. In addition, the “R-CompZ, compositeZ score” value in series [2] (setting [3]) is −3.5069.

Turning to `O=C1C2C=C(Br)C(CC2OCCCCCCO)[C@@]12CO2` (some centres unmarked) [SM_A1B2_1P32], the “C-CompZ, compositeZ score” value in series [1] is recorded as 0.9925. The “R-CompZ, compositeZ score” value in series [2] (setting [3]) is given as −3.252.

As to `C[C@H](O/N=C1/[C@H]2CCn3c(=O)n(-c4ccccc4)c(=O)n3[C@H]2[C@H](O)[C@@H]2O[C@H]12)c1cn([C@H](CO)Cc2ccccc2)nn1` [BUCMLD-B10A10], the “C-CompZ, compositeZ score” value in series [1] is given as 1.9213. Moreover, the “R-CompZ, compositeZ score” value in series [2] (setting [3]) is recorded as −2.7028.

As for `COC12C=C(Br)C(CC1c1cccc(C)c1)[C@@]1(CO1)C2=O` (some centres unmarked) [SM_A4B6_2P123], in series [1], the “C-CompZ, compositeZ score” value was −0.795. Moreover, the “R-CompZ, compositeZ score” value in series [2] (setting [3]) is recorded as −3.4419.

Take `CC(=O)OC[C@H]1O[C@@H](O/N=C2/[C@H]3CCn4c(=O)n(-c5ccccc5)c(=O)n4[C@H]3[C@H](O)[C@@H]3O[C@H]23)[C@H](OC(C)=O)[C@@H](OC(C)=O)[C@@H]1OC(C)=O` [BUCMLD-B10A13]: in series [1], the “C-CompZ, compositeZ score” value amounted to 1.0278. In addition, the “R-CompZ, compositeZ score” value in series [2] (setting [3]) is recorded as −2.8629.

In the case of `C=CC[C@@H]1C=C[C@H](O/N=C2/[C@H]3CCn4c(=O)n(-c5ccccc5)c(=O)n4[C@H]3[C@H](O)[C@@H]3O[C@H]23)[C@@H](CO)O1` [BUCMLD-B10A7], in series [1], the “C-CompZ, compositeZ score” value is listed as 1.1731. Besides, the “R-CompZ, compositeZ score” value in series [2] was −3.3561.
